Measurements taken from US20150010498A1, “Immunocytokines for Cancer Treatment in Combination with Chemotherapeutic Agents” (Philogen S.p.A., priority 2007, published 2015).

Tests used:
tubulin = settings: compared with paclitaxel; cited from earlier work
[1] = system: MDA-MB-231 human breast cancer cells; experiment: Therapy of MDA-MB231 human breast cancer model implanted in nude mice (tumor growth); type: in vivo, Balb/c nude female mice; settings: 4 mg/kg versus 1 mg/kg doxorubicin i.v.; FIG. 5
Procedure: Tumor-bearing mice were obtained by injecting 2*10̂7 MDA-MB-231 human breast cancer cells s.c. in 10- to 12-week old Balb/c nude female mice (Charles River Laboratories). Mice were grouped (n=5) 9 days after tumor cell implantation when tumors were clearly palpable and injected i.v. in the lateral tail vein with saline, 20 μg F16-IL2 (corresponding to 6.6 μg IL2), 6.6 μg recombinant IL2 (Proleukin®, and 4 mg/kg or 1 mg/kg Doxorubicin in a maximum volume of 250 μl. Mice were monitored daily and tumor growth was measured three times weekly with a caliper using the following formula: volume=length×width2×0.5. Animals were sacrificed when tumors reached a volume >2000 mm3 or when tumors became necrotic according to Swiss regulations and under a project license granted by the
Veterinäramt des Kantons Zürich (198/2005). Tumor sizes are expressed as mean±SE.
Tumor-bearing mice produced in the same way were injected i.v. in the lateral tail vein with saline, 20 μg F16-IL2 (corresponding to 6.6 μg IL2), and 1 mg/kg or 5 mg/kg taxol™ in a maximum volume of 250 μl. Mice were monitored and tumor growth measured as described above.

[2] = system: MDA-MB-231 human breast cancer cells; experiment: Biodistribution of radioiodinated F16-IL2 after doxorubicin pre-injection; type: in vivo, Balb/c nude female mice; settings: radioiodinated F16-IL2 i.v., sacrifice 24 h after injection; 10 mg/kg doxorubicin i.v. 8 days, 24 h or 2 h before; FIGS. 1 to 4
Procedure: The in vivo targeting performance was evaluated by biodistribution analysis. Tumor-bearing mice were obtained by injecting 10̂7 MDA-MB-231 human breast cancer cells s.c. in 10- to 12-week old Balb/c nude female mice (Charles River Laboratories). Mice were grouped (n≧5) when tumors were clearly palpable and injected i.v. in the lateral tail vein with 10 mg/kg doxorubicin 8 days, 24 h or 2 h prior to biodistribution. The control group was exempted from doxorubicin administration. Purified F16-IL2 was radioiodinated and injected into the lateral tail vein of all mice. Mice were sacrificed 24 h after injection (12.5 μg, 3.3 μCi per mouse). Organs were weighed and radioactivity was counted with a Packard Cobra gamma counter. Radioactivity content of representative organs was expressed as the percentage of the injected dose per gram of tissue (%ID/g).

A-nor-paclitaxel
tubulin-assembly activity relative to paclitaxel (tubulin): only three times less than that of paclitaxel

COc1cccc2c1C(=O)c1c(O)c3c(c(O)c1C2=O)C[C@@](O)(C(=O)CO)C[C@@H]3OC1CC(N)C(O)C(C)O1 (stereo partly drawn) [doxorubicin, (8S, 10S)-10-(4-amino-5-hydroxy-6-methyl-tetrahydro-2H-pyran-2-yloxy)-6,8,11-trihydroxy-8-(2-hydroxyacetyl)-1-methoxy-7,8,9,10-tetrahydrotetracene-5,12-dione]
effect of doxorubicin dose on efficacy [1]: higher doses of doxorubicin were even more effective than low doses

F16-IL2: antibody-IL2 conjugate: interleukin 2 conjugated to the anti-tenascin-C antibody 4A1-F16 (VH SEQ ID NO. 2, VL SEQ ID NO. 4)
tumor targeting of the immunocytokine (biodistribution, %ID/g) [2]: does not impair the tumor targeting
